Read-outs that look alike come from different tables or passages of the source. *1 amine or outer side, *2 acyl side, *3 side chain or, on linkers, in order; H or OH if unused. Where a SMILES comes first, the peptide text is derived from it. Bridges are numbered along the chain shown (N, C = ends). [ ]: non-standard residue; d: D form. The star is where a group is joined. NMePhe(2-(4-MorPh),5-Cl) = CN[C@@H](Cc1cc(Cl)ccc1-c1ccc(N2CCOCC2)cc1)C(=O)O; X72 = CN([C@@H](Cc1cc(Cl)ccc1-c1cnn(C2CCS(=O)(=O)C2)c1)C(=O)[*:2])[*:1]; X40 = CN1CCN(Cc2ccc(-c3ccc(Cl)cc3C[C@@H](C(=O)[*:2])N(C)[*:1])cc2)CC1; X82 = CN([C@@H](Cc1cc(Cl)ccc1-c1cnn(S(C)(=O)=O)c1)C(=O)[*:2])[*:1]; X93 = CN([C@@H](Cc1cc(Cl)ccc1-c1ccc(OC2CCOCC2)cc1)C(=O)[*:2])[*:1]; X24 = CN([C@@H](Cc1cc(Cl)ccc1-c1cnn(C(C)(C)C)c1)C(=O)[*:2])[*:1]; X87 = CN([C@@H](Cc1cc(F)ccc1-c1ccc(N2CCOCC2)cc1)C(=O)[*:2])[*:1]; X16 = CN([C@@H](Cc1cc(Cl)ccc1-c1cnc2c(cnn2C)c1)C(=O)[*:2])[*:1]; X14 = Cc1nc(C)c(-c2ccc(Cl)cc2C[C@@H](C(=O)[*:2])N(C)[*:1])s1; X97 = CN([C@@H](Cc1cc(Cl)ccc1-c1ccn2ncnc2c1)C(=O)[*:2])[*:1]; NMehhhLys(Me) = CN([C@@H](CCCCCCCN(C)[*:3])C(=O)[*:2])[*:1]; X15 = CN([C@@H](Cc1cc(Cl)ccc1-c1cnn2c1CCC2)C(=O)[*:2])[*:1]; X22 = CN([C@@H](Cc1cc(Cl)ccc1-c1cnn(C)c1)C(=O)[*:2])[*:1]; X66 = CN([C@@H](Cc1cc(Cl)ccc1-c1cccnc1)C(=O)[*:2])[*:1]; NMe(hhhLys) = CN([C@@H](CCCCCCCN[*:3])C(=O)[*:2])[*:1]; X28 = CN([C@@H](Cc1cc(Cl)cnc1OC1CCC1)C(=O)[*:2])[*:1]; Cyclobutanecarbonyl(1-CF3) = O=C(C1(C(F)(F)F)CCC1)*; cBuCO(3,3-F2-1-CF3) = O=C(C1(C(F)(F)F)CC(F)(F)C1)*; X25 = CCOc1ncc(Cl)cc1C[C@@H](C(=O)[*:2])N(C)[*:1]; Pro(trans-4-F) = O=C(O)[C@@H]1C[C@@H](F)CN1; Gly(cPr) = N[C@H](C(=O)O)C1CC1
Assays:
CyclinA2/CDK2 = biological target: T1, CyclinA2/CDK2 (Homo sapiens, UniProt P20248); test: Fluorescence Polarization (FP) competitive binding assay, Cyclin A2/Cdk2;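 also: plates equilibrated two hours at room temperature before polarization reading, IC50 fitted from eight-concentration compound titration curves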
T1 construct: purchased CRELUX Protein Services

CyclinB1/CDK1 = biological target: T2, CyclinB1/CDK1 (Homo sapiens, UniProt P14635); test: Fluorescence Polarization (FP) competitive binding assay, Cyclin B1/Cdk1;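 also: fluorescence polarization read after equilibration at room temperature, with IC50 taken from serially diluted dose-response curves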
T2 construct: purchased Eurofins, discovery 14-450

CyclinE1/CDK2 = biological target: T3, CyclinE1/CDK2 (Homo sapiens, UniProt P24864); test: Fluorescence Polarization (FP) competitive binding assay, Cyclin E1/Cdk2;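 also: readings taken after two-hour equilibration at room temperature in HEPES buffer with NaCl, DTT, NP-40 and BSA, IC50 fitted from eight-concentration serial dilution series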
T3 construct: purchased Eurofins, discovery 14-475

WI-38 cells = test: MTT proliferation assay, WI-38; format: cell-based; conditions: 3 days compound exposure, 1:3 serial dilution starting at 10 μM;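 also: Eight- or ten-point dilution series, with exposure length chosen to span about three to four cell doublings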
NCI-H1048 cells = test: MTT proliferation assay, NCI-H1048; format: cell-based; conditions: 5 days compound exposure, 1:3 serial dilution starting at 10 μM;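 also: Dose-response in 96-well plates over 8 or 10 concentration points, with exposure spanning 3-4 cell doublings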
OVCAR3 cells = test: MTT proliferation assay, OVCAR3; format: cell-based; conditions: 5 days compound exposure, 1:3 serial dilution starting at 10 μM;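 also: compound given as an 8- or 10-point series, one day after plating, with exposure covering roughly 3-4 cell doublings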
[1] = 8 nM Cyclin A2/Cdk2, 2 nM FAM probe, average of 2-3 independent experiments, read-out: Cyclin A FP IC50
[2] = 10 nM Cyclin B1/Cdk1, 2 nM FAM probe; average of 2-3 independent experiments; read-out: Cyclin B FP IC50
[3] = 10 nM Cyclin E1/Cdk2, 2 nM FAM probe, average of 2-3 independent experiments, read-out: Cyclin E FP IC50
[4] = read-out: Cyclin B FP IC50; 10 nM Cyclin B1/Cdk1, 2 nM FAM probe; average of 2-3 independent experiments

SMILES	IC50 (CyclinA2/CDK2; [1])	IC50 (CyclinB1/CDK1; [2])	IC50 (CyclinE1/CDK2; [3])	GI50 (WI-38 cells)	GI50 (NCI-H1048 cells)	GI50 (OVCAR3 cells)	IC50 (CyclinA2/CDK2)	IC50 (CyclinB1/CDK1; [4])	IC50 (CyclinE1/CDK2)
CC(C)C[C@@H]1NC(=O)[C@@H](N(C)C(=O)[C@@H](NC(=O)[C@@H]2C[C@@H](F)CN2C(=O)C2(C(F)(F)F)CC(F)(F)C2)C2CC2)CCCCCCCN(C)C(=O)[C@H](Cc2cc(Cl)ccc2-c2cnn3c2CCC3)N(C)C1=O [Example 190] ({cBuCO(3,3-F2-1-CF3)}-[Pro(trans-4-F)][Gly(cPr)][NMehhhLys(Me)]L[X15]; lactam 3-C)	20 nM	20 nM	660 nM	1980 nM	10 nM	10 nM	–	–	–
CC(C)C[C@@H]1NC(=O)[C@@H](N(C)C(=O)[C@@H](NC(=O)[C@@H]2C[C@@H](F)CN2C(=O)C2(C(F)(F)F)CC(F)(F)C2)C2CC2)CCCCCCCN(C)C(=O)[C@H](Cc2cc(Cl)ccc2-c2cnn(C)c2)N(C)C1=O [Example 49] ({cBuCO(3,3-F2-1-CF3)}-[Pro(trans-4-F)][Gly(cPr)][NMehhhLys(Me)]L[X22]; lactam 3-C)	20 nM	20 nM	350 nM	11500 nM	10 nM	10 nM	–	–	–
COC(=O)CC[C@H](NC(=O)[C@@H]1C[C@@H](F)CN1C(=O)C1(C(F)(F)F)CC(F)(F)C1)C(=O)N(C)[C@H]1CCCCCCCN(C)C(=O)[C@H](Cc2cc(Cl)ccc2-c2ccc(N3CCOCC3)cc2)N(C)C(=O)[C@H](CC(C)C)NC1=O [Example 415] ({cBuCO(3,3-F2-1-CF3)}-[Pro(trans-4-F)]E(OMe)[NMehhhLys(Me)]L[NMePhe(2-(4-MorPh),5-Cl)]; lactam 3-C)	20 nM	20 nM	300 nM	14100 nM	10 nM	10 nM	–	–	–
CC(C)C[C@@H]1NC(=O)[C@@H](N(C)C(=O)[C@@H](NC(=O)[C@@H]2C[C@@H](F)CN2C(=O)C2(C(F)(F)F)CC(F)(F)C2)C2CC2)CCCCCCCN(C)C(=O)[C@H](Cc2cc(Cl)ccc2-c2ccc(CN3CCN(C)CC3)cc2)N(C)C1=O [Example 360] ({cBuCO(3,3-F2-1-CF3)}-[Pro(trans-4-F)][Gly(cPr)][NMehhhLys(Me)]L[X40]; lactam 3-C)	20 nM	20 nM	860 nM	2720 nM	10 nM	10 nM	–	–	–
CC(C)C[C@@H]1NC(=O)[C@@H](N(C)C(=O)[C@@H](NC(=O)[C@@H]2C[C@@H](F)CN2C(=O)C2(C(F)(F)F)CC(F)(F)C2)C2CC2)CCCCCCCNC(=O)[C@H](Cc2cc(Cl)ccc2-c2cccnc2)N(C)C1=O [Example 276] ({cBuCO(3,3-F2-1-CF3)}-[Pro(trans-4-F)][Gly(cPr)][NMe(hhhLys)]L[X66]; lactam 3-C)	30 nM	20 nM	700 nM	23400 nM	20 nM	20 nM	–	–	–
CC(C)C[C@@H]1NC(=O)[C@@H](N(C)C(=O)[C@@H](NC(=O)[C@@H]2C[C@@H](F)CN2C(=O)C2(C(F)(F)F)CC(F)(F)C2)C2CC2)CCCCCCCN(C)C(=O)[C@H](Cc2cc(F)ccc2-c2ccc(N3CCOCC3)cc2)N(C)C1=O [Example 337] ({cBuCO(3,3-F2-1-CF3)}-[Pro(trans-4-F)][Gly(cPr)][NMehhhLys(Me)]L[X87]; lactam 3-C)	20 nM	20 nM	190 nM	18700 nM	10 nM	10 nM	–	–	–
CC(C)C[C@@H]1NC(=O)[C@@H](N(C)C(=O)[C@@H](NC(=O)[C@@H]2C[C@@H](F)CN2C(=O)C2(C(F)(F)F)CCC2)C2CC2)CC=CCCCCN(C)C(=O)[C@H](Cc2cc(Cl)ccc2-c2cnn(C)c2)N(C)C1=O [Example 34]	20 nM	20 nM	210 nM	13100 nM	60 nM	110 nM	–	–	–
CC(C)C[C@@H]1NC(=O)[C@@H](N(C)C(=O)[C@@H](NC(=O)[C@@H]2C[C@@H](F)CN2C(=O)C2(C(F)(F)F)CC(F)(F)C2)C2CC2)CCCCCCCN(C)C(=O)[C@H](Cc2cc(Cl)ccc2-c2cnn(S(C)(=O)=O)c2)N(C)C1=O [Example 238] ({cBuCO(3,3-F2-1-CF3)}-[Pro(trans-4-F)][Gly(cPr)][NMehhhLys(Me)]L[X82]; lactam 3-C)	–	–	–	17300 nM	10 nM	20 nM	30 nM	20 nM	990 nM
CC(C)C[C@@H]1NC(=O)[C@@H](N(C)C(=O)[C@@H](NC(=O)[C@@H]2C[C@@H](F)CN2C(=O)C2(C(F)(F)F)CC(F)(F)C2)C2CC2)CCCCCCCN(C)C(=O)[C@H](Cc2cc(Cl)ccc2-c2cnn(C(C)(C)C)c2)N(C)C1=O [Example 187] ({cBuCO(3,3-F2-1-CF3)}-[Pro(trans-4-F)][Gly(cPr)][NMehhhLys(Me)]L[X24]; lactam 3-C)	20 nM	20 nM	340 nM	8660 nM	10 nM	10 nM	–	–	–
CC(C)C[C@@H]1NC(=O)[C@@H](N(C)C(=O)[C@@H](NC(=O)[C@@H]2C[C@@H](F)CN2C(=O)C2(C(F)(F)F)CC(F)(F)C2)C2CC2)CCCCCCCN(C)C(=O)[C@H](Cc2cc(Cl)cnc2OC2CCC2)N(C)C1=O [Example 140] ({cBuCO(3,3-F2-1-CF3)}-[Pro(trans-4-F)][Gly(cPr)][NMehhhLys(Me)]L[X28]; lactam 3-C)	20 nM	20 nM	120 nM	9250 nM	50 nM	130 nM	–	–	–
Cc1nc(C)c(-c2ccc(Cl)cc2C[C@H]2C(=O)N(C)CCCCCCC[C@H](N(C)C(=O)[C@@H](NC(=O)[C@@H]3C[C@@H](F)CN3C(=O)C3(C(F)(F)F)CC(F)(F)C3)C3CC3)C(=O)N[C@@H](CC(C)C)C(=O)N2C)s1 [Example 207] ({cBuCO(3,3-F2-1-CF3)}-[Pro(trans-4-F)][Gly(cPr)][NMehhhLys(Me)]L[X14]; lactam 3-C)	50 nM	20 nM	2730 nM	4940 nM	30 nM	40 nM	–	–	–
CC(C)C[C@@H]1NC(=O)[C@@H](N(C)C(=O)[C@@H](NC(=O)[C@@H]2C[C@@H](F)CN2C(=O)C2(C(F)(F)F)CC(F)(F)C2)C2CC2)C/C=C\CCCCN(C)C(=O)[C@H](Cc2cc(Cl)ccc2-c2cnn(C3CC3)c2)N(C)C1=O [Example 175]	20 nM	20 nM	130 nM	6850 nM	10 nM	10 nM	–	–	–
CCOc1ncc(Cl)cc1C[C@H]1C(=O)N(C)CCCCCCC[C@H](N(C)C(=O)[C@@H](NC(=O)[C@@H]2C[C@@H](F)CN2C(=O)C2(C(F)(F)F)CCC2)C2CC2)C(=O)N[C@@H](CC(C)C)C(=O)N1C [Example 227] ({Cyclobutanecarbonyl(1-CF3)}-[Pro(trans-4-F)][Gly(cPr)][NMehhhLys(Me)]L[X25]; lactam 3-C)	–	–	–	14100 nM	20 nM	40 nM	30 nM	20 nM	120 nM
CC(C)C[C@@H]1NC(=O)[C@@H](N(C)C(=O)[C@@H](NC(=O)[C@@H]2C[C@@H](F)CN2C(=O)C2(C(F)(F)F)CC(F)(F)C2)C2CC2)CCCCCCCN(C)C(=O)[C@H](Cc2cc(Cl)ccc2-c2cnn(C3CCS(=O)(=O)C3)c2)N(C)C1=O (stereo partly drawn) [Example 253] ({cBuCO(3,3-F2-1-CF3)}-[Pro(trans-4-F)][Gly(cPr)][NMehhhLys(Me)]L[X72]; lactam 3-C)	20 nM	20 nM	330 nM	9930 nM	40 nM	20 nM	–	–	–
CC(C)C[C@@H]1NC(=O)[C@@H](N(C)C(=O)[C@@H](NC(=O)[C@@H]2C[C@@H](F)CN2C(=O)C2(C(F)(F)F)CC(F)(F)C2)C2CC2)CCCCCCCN(C)C(=O)[C@H](Cc2cc(Cl)ccc2-c2cnc3c(cnn3C)c2)N(C)C1=O [Example 250] ({cBuCO(3,3-F2-1-CF3)}-[Pro(trans-4-F)][Gly(cPr)][NMehhhLys(Me)]L[X16]; lactam 3-C)	–	–	–	5550 nM	30 nM	30 nM	30 nM	20 nM	1620 nM
CC(C)C[C@@H]1NC(=O)[C@@H](N(C)C(=O)[C@@H](NC(=O)[C@@H]2C[C@@H](F)CN2C(=O)C2(C(F)(F)F)CC(F)(F)C2)C2CC2)CCCCCCCN(C)C(=O)[C@H](Cc2cc(Cl)ccc2-c2ccc(OC3CCOCC3)cc2)N(C)C1=O [Example 340] ({cBuCO(3,3-F2-1-CF3)}-[Pro(trans-4-F)][Gly(cPr)][NMehhhLys(Me)]L[X93]; lactam 3-C)	20 nM	20 nM	1650 nM	17300 nM	20 nM	20 nM	–	–	–
CC(C)C[C@@H]1NC(=O)[C@@H](N(C)C(=O)[C@@H](NC(=O)[C@@H]2C[C@@H](F)CN2C(=O)C2(C(F)(F)F)CC(F)(F)C2)C2CC2)CCCCCCCN(C)C(=O)[C@H](Cc2cc(Cl)ccc2-c2ccn3ncnc3c2)N(C)C1=O [Example 179] ({cBuCO(3,3-F2-1-CF3)}-[Pro(trans-4-F)][Gly(cPr)][NMehhhLys(Me)]L[X97]; lactam 3-C)	30 nM	20 nM	1130 nM	11600 nM	10 nM	30 nM	–	–	–

Reference: patent US20240408169A1 (priority 2023, published 2024)
